Test results: ChEMBL document CHEMBL5113375, “Development of Mcl-1 inhibitors for cancer therapy” (Eur J Med Chem, 2021)

Key:
[1] = target: T1, BCL2A1/BID (Homo sapiens, UniProt Q16548); test: Binding affinity to Bfl-1/Bid (unknown origin) incubated for 3 hrs by fluorescence polarization-based binding assay; format: protein assay
T1 sequence (Q16548 whole entry): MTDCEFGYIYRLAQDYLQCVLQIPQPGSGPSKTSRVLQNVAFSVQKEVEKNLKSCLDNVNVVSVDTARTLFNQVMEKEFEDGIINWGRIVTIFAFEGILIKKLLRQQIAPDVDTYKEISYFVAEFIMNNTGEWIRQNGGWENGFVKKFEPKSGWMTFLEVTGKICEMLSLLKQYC
T1 sequence (P55957 whole entry): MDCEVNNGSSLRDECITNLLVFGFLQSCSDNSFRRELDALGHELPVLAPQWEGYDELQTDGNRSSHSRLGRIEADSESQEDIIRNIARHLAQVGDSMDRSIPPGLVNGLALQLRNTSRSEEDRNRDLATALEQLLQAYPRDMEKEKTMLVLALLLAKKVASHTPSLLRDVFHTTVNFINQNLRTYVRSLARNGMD

[2] = target: T2, Induced myeloid leukemia cell differentiation protein Mcl-1/BH3-interacting domain death agonist (Homo sapiens, UniProt Q07820); test: Binding affinity to Mcl-1/Bid (unknown origin) incubated for 3 hrs by fluorescence polarization-based binding assay; format: protein assay
T2 sequence (Q07820 whole entry, one chain of several, the tested form may be a part): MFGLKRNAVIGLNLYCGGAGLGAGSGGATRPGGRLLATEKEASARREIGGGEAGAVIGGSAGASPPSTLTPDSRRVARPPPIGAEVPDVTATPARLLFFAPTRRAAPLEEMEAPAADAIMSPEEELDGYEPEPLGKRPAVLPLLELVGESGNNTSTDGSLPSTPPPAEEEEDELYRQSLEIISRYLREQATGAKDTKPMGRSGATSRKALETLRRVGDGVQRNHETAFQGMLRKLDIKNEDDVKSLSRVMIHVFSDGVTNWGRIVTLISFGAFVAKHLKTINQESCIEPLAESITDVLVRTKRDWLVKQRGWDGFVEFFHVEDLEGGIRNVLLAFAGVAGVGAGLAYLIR

[3] = Induction of apoptosis in Mcl-1 dependent […] cells treated for 48 hrs by Annexin V-FITC staining based flow cytometric analysis; format: functional, cell-based; conditions: Mus musculus, H22, 48 h
[4] = tested on: MCF7; test: Induction of apoptosis in Bcl-2 dependent human MCF7 cells treated for 48 hrs by Annexin V-FITC staining based flow cytometric analysis; format: functional, cell-based; conditions: MCF7, 48 h
[5] = target: T3, Bcl-xL/BH3-interacting domain death agonist (Homo sapiens, UniProt Q07817); test: Inhibition of Bcl-xL/Bid complex (unknown origin); format: protein assay
T3 sequence (Q07817 whole entry, one chain of several, the tested form may be a part): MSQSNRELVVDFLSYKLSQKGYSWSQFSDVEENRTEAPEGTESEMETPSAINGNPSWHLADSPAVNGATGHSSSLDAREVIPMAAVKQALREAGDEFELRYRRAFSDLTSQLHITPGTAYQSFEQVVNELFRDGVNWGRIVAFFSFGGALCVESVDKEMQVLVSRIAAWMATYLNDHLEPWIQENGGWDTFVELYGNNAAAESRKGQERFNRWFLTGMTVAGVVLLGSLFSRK

[6] = target: T1, BCL2A1/BID; test: Inhibition of Bfl-1/Bid (unknown origin); format: protein assay
[7] = Binding affinity to Bcl-xL/Bad (unknown origin) assessed as inhibition constant by fluorescence polarisation assay; set-up: species or system Homo sapiens
[8] = target: T4, BCL2L2/BID (Homo sapiens, UniProt P55957+Q92843); test: Inhibition of Bcl-W/Bid (unknown origin); format: protein assay
T4 sequence (Q92843 whole entry): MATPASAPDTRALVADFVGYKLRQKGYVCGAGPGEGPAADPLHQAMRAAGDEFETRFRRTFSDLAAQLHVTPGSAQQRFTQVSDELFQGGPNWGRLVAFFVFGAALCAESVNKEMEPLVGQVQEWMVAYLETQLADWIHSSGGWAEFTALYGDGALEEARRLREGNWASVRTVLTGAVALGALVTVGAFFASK
T4 sequence (P55957 whole entry): T1 sequence (P55957 whole entry)

[9] = target: BCL2/BAD (Homo sapiens, UniProt P10415); test: Binding affinity to Bcl-2/Bad (unknown origin) assessed as inhibition constant by fluorescence polarisation assay; format: protein assay
Chain of BCL2/BAD (Q92934 whole entry, the tested form may be a part): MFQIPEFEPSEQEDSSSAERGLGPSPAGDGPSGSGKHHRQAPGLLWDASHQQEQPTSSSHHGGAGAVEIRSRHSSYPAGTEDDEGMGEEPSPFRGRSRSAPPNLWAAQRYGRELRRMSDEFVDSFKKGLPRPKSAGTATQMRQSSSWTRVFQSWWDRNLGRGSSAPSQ
Chain of BCL2/BAD (P10415 whole entry, the tested form may be a part): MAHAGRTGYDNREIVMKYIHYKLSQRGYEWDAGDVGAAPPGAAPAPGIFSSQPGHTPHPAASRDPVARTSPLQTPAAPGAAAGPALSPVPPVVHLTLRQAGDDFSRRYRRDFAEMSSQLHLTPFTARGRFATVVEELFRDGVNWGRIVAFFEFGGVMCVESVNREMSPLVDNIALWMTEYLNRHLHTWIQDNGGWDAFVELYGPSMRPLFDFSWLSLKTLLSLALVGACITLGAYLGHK

[10] = target: T2, Induced myeloid leukemia cell differentiation protein Mcl-1/BH3-interacting domain death agonist; test: Inhibition of Mcl-1/Bid (unknown origin); format: protein assay
[11] = target: BCL2L10/BID (Homo sapiens, UniProt P55957+Q9HD36); test: Inhibition of Bcl-B/Bid (unknown origin); format: protein assay
Chain of BCL2L10/BID (Q9HD36 whole entry, one chain of several): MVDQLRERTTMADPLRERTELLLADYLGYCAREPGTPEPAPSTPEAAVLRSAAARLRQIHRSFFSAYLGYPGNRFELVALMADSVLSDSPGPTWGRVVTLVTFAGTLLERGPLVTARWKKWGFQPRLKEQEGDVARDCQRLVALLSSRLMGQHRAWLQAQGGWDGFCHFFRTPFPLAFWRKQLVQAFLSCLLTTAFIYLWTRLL

[12] = target: T5, BCL2/BID (Homo sapiens, UniProt P10415); test: Inhibition of Bcl-2/Bid (unknown origin); format: protein assay
T5 sequence (P10415 whole entry, one chain of several): as the sequence (P10415 whole entry, the tested form may be a part) above

[13] = target: T6, Bcl-xL/BAK (Homo sapiens, UniProt Q07817); test: Binding affinity to Bcl-xL/Bak (unknown origin) assessed as dissociation constant by ITC method; format: protein assay
T6 sequence (Q07817 whole entry, one chain of several): as the sequence (Q07817 whole entry, one chain of several, the tested form may be a part) above

[14] = target: T7, MCL1-BAK1 complex (Homo sapiens, UniProt Q07820); test: Binding affinity to Mcl-1/Bak (unknown origin) assessed as inhibition constant by fluorescence polarization assay; format: protein-complex assay
T7 sequence (Q07820 whole entry, one chain of several): as the sequence (Q07820 whole entry, one chain of several, the tested form may be a part) above

[15] = target: T6, Bcl-xL/BAK; test: Binding affinity to Bcl-xL/Bak (unknown origin) assessed as inhibition constant by fluorescence polarization assay; format: protein assay
[16] = target: T8, Induced myeloid leukemia cell differentiation protein Mcl-1 (Homo sapiens, UniProt Q07820); test: Binding affinity to Mcl-1 (unknown origin)
T8 sequence (Q07820 whole entry, the tested form may be a part): as the sequence (Q07820 whole entry, one chain of several, the tested form may be a part) above

[17] = target: T3, Bcl-xL/BH3-interacting domain death agonist; test: Inhibition of Bcl-xL/Bid (unknown origin) by fluorescence polarization assay; format: protein assay
[18] = target: T2, Induced myeloid leukemia cell differentiation protein Mcl-1/BH3-interacting domain death agonist; test: Inhibition of Mcl-1/Bid (unknown origin) by fluorescence polarization assay; format: protein assay
[19] = target: T2, Induced myeloid leukemia cell differentiation protein Mcl-1/BH3-interacting domain death agonist; test: Inhibition of Mcl-1/FITC-labelled Bid (unknown origin) protein protein interaction incubated for 20 to 60 mins by fluorescence polarisation binding assay
[20] = tested on: OPM-2; test: Cytotoxicity against human OPM-2 cells assessed as cell viability; format: functional, cell-based
[21] = target: Bcl-xL/Bcl-2-like protein 11 (Homo sapiens, UniProt Q07817); test: Binding affinity to GST-tagged Bcl-xL/5-FAM-tagged Bim (unknown origin) assessed as inhibition constant by fluorescence polarization assay; format: protein assay
Chain of Bcl-xL/Bcl-2-like protein 11 (Q07817 whole entry, the tested form may be a part): as the sequence (Q07817 whole entry, one chain of several, the tested form may be a part) above
Chain of Bcl-xL/Bcl-2-like protein 11 (O43521 whole entry, further chain, the tested form may be a part): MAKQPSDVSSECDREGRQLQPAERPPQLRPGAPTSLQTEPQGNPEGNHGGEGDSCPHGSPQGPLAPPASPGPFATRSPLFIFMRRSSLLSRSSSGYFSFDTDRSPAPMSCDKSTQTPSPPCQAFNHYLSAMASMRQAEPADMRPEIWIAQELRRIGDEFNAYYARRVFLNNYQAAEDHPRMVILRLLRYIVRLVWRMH

[22] = target: T5, BCL2/BID; test: Binding affinity to human Bcl-2 (29 to 44 residues)/5-FAM-tagged Bid (unknown origin) assessed as inhibition constant by fluorescence polarization assay; format: protein assay
[23] = target: T2, Induced myeloid leukemia cell differentiation protein Mcl-1/BH3-interacting domain death agonist; test: Binding affinity to human N-terminal 8xHis tagged Mcl-1/5-FAM-tagged Bid (unknown origin) assessed as inhibition constant by fluorescence polarization assay; format: protein assay
[24] = target: Apoptosis regulator Bcl-2 (Homo sapiens, UniProt P10415); test: Binding affinity to Bcl-2 (unknown origin) assessed as inhibition constant
Chain of Apoptosis regulator Bcl-2 (P10415 whole entry): as the sequence (P10415 whole entry, the tested form may be a part) above

[25] = target: T8, Induced myeloid leukemia cell differentiation protein Mcl-1; test: Binding affinity to Mcl-1 (unknown origin) assessed as inhibition constant
[26] = target: Bcl-2-like protein 1 (Homo sapiens, UniProt Q07817); test: Binding affinity to Bcl-xL (unknown origin) assessed as inhibition constant
Chain of Bcl-2-like protein 1 (Q07817 whole entry): as the sequence (Q07817 whole entry, one chain of several, the tested form may be a part) above

[27] = Inhibition of Bak/Bcl-xL (unknown origin) protein protein interaction by fluorescence polarization assay; set-up: species or system Homo sapiens
[28] = target: T7, MCL1-BAK1 complex; test: Inhibition of Bak/Mcl-1 (unknown origin) protein protein interaction by fluorescence polarization assay; format: protein-complex assay
[29] = Binding affinity to Bak/Bcl-xL (unknown origin) protein protein interaction by fluorescence polarization assay; set-up: species or system Homo sapiens
[30] = target: T6, Bcl-xL/BAK; test: Binding affinity to human Bcl-xL/Bak (unkown origin) incubated for 1 hr by fluorescence polarization assay; format: protein assay
[31] = Binding affinity to mouse Mcl-1/Bak (unkown origin) incubated for 1 hr by fluorescence polarization assay
[32] = target: Apoptosis regulator Bcl-2/Bcl-2 homologous antagonist/killer (Homo sapiens, UniProt P10415+Q16611); test: Inhibition of Bcl-2/Bak (unknown origin); format: protein assay
Chain of Apoptosis regulator Bcl-2/Bcl-2 homologous antagonist/killer (P10415 whole entry, one chain of several): as the sequence (P10415 whole entry, the tested form may be a part) above

[33] = target: T9, BCL2A1/BAK1 (Homo sapiens, UniProt Q16548+Q16611); test: Inhibition of Bfl-1/Bak (unknown origin); format: protein assay
T9 sequence (Q16611 whole entry): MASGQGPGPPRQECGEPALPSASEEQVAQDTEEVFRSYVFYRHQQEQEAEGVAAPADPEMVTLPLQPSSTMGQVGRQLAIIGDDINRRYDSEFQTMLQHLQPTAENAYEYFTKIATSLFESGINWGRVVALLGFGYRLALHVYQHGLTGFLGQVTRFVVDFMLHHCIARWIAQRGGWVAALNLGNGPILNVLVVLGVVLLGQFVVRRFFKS
T9 sequence (Q16548 whole entry): T1 sequence (Q16548 whole entry)

[34] = target: T7, MCL1-BAK1 complex; test: Inhibition of Mcl-1/Bak (unknown origin); format: protein-complex assay
[35] = target: T6, Bcl-xL/BAK; test: Inhibition of Bcl-xL/Bak (unknown origin); format: protein assay
[36] = target: T6, Bcl-xL/BAK; test: Inhibition of Bcl-xL/Bak (unknown origin) by fluorescence polarization assay; format: protein assay
[37] = target: T10, Induced myeloid leukemia cell differentiation protein Mcl-1/Bcl-2-like protein 11 (Homo sapiens, UniProt Q07820); test: Inhibition of Mcl-1/Bim (unknown origin) by fluorescence polarisation assay; format: protein assay
T10 sequence (Q07820 whole entry, the tested form may be a part): as the sequence (Q07820 whole entry, one chain of several, the tested form may be a part) above
T10 sequence (O43521 whole entry, further chain, the tested form may be a part): as the sequence (O43521 whole entry, further chain, the tested form may be a part) above

[38] = target: T2, Induced myeloid leukemia cell differentiation protein Mcl-1/BH3-interacting domain death agonist; test: Binding affinity to Mcl-1/Bid (unknown origin) assessed as inhibition constant by fluorescence polarization assay; format: protein assay
[39] = target: T1, BCL2A1/BID; test: Binding affinity to Bfl-1/Bid (unknown origin) by fluorescence polarization assay; format: protein assay
[40] = target: T5, BCL2/BID; test: Binding affinity to Bcl-2/Bid (unknown origin) by fluorescence polarization assay; format: protein assay
[41] = target: T3, Bcl-xL/BH3-interacting domain death agonist; test: Binding affinity to Bcl-xL/Bid (unknown origin) by fluorescence polarization assay; format: protein assay
[42] = target: T8, Induced myeloid leukemia cell differentiation protein Mcl-1; test: Binding affinity to Mcl-1 (unknown origin) assessed as inhibition constant by fluorescence polarization assay
[43] = target: T4, BCL2L2/BID; test: Binding affinity to Bcl-W/Bid (unknown origin) by fluorescence polarization assay; format: protein assay
[44] = Binding affinity to Mcl-1 H224A (unknown origin) assessed as dissociation constant by SPR analysis; set-up: species or system Homo sapiens
[45] = tested on: K562; test: Cytotoxicity against human K562 cells; format: functional, cell-based
[46] = tested on: HeLa; test: Cytotoxicity against human HeLa cells; format: functional, cell-based
[47] = target: T8, Induced myeloid leukemia cell differentiation protein Mcl-1; test: Binding affinity to wildtype Mcl-1 (unknown origin) assessed as dissociation constant by SPR analysis
[48] = target: T10, Induced myeloid leukemia cell differentiation protein Mcl-1/Bcl-2-like protein 11; test: Inhibition of Mcl-1/Bim (unknown origin) by ELISA method; format: protein assay
[49] = target: BCL2/BCL2L11 (Homo sapiens, UniProt P10415); test: Inhibition of Bcl-2/Bim (unknown origin) by ELISA method; format: protein assay
Chain of BCL2/BCL2L11 (P10415 whole entry): as the sequence (P10415 whole entry, the tested form may be a part) above
Chain of BCL2/BCL2L11 (O43521 whole entry, further chain): as the sequence (O43521 whole entry, further chain, the tested form may be a part) above

O=C(CSc1nnc(-c2ccco2)c(-c2ccco2)n1)Nc1ccccc1
Ki [1]: 4900 nM | Ki [2]: 3200 nM

O=C(O)c1cc2ccccc2n1S(=O)(=O)c1ccc(OCc2cccc(Cl)c2)cc1
IC50 [3]: 9200 nM | IC50 [4]: 19200 nM

O=C(O[C@@H]1Cc2c(O)cc(O)cc2O[C@@H]1c1cc(O)c(O)c(O)c1)c1cc(O)c(O)c(O)c1 [EPIGALOCATECHIN GALLATE]
IC50 [5]: 590 nM | IC50 [6]: 1790 nM | Ki [7]: 335 nM | IC50 [8]: 2330 nM | Ki [9]: 490 nM | IC50 [10]: 920 nM | IC50 [11]: 360 nM | IC50 [12]: 450 nM

COc1ccc(-c2ccc(/C=C3\SC(=S)N([C@@H](Cc4ccccc4)C(=O)O)C3=O)cn2)cc1OC
Kd [13]: > 750000 nM | Ki [14]: 8000 nM | Ki [15]: > 100000 nM

CC1=C(C2=C(C)C(=O)c3c(cc(O)c(O)c3C(C)C)C2=O)C(=O)c2cc(O)c(O)c(C(C)C)c2C1=O
Ki [16]: 25000 nM | IC50 [17]: 660 nM | IC50 [18]: 25 nM

Cc1ccc(S(=O)(=O)/N=C2\C=C(Sc3nc[nH]n3)C(=O)c3ccccc32)cc1
IC50 [19]: 450 nM

O=C(O)C(O)c1ccccc1 (stereo not given) [MANDELIC ACID]
IC50 [20]: 19 nM

O=C(Nc1ccccc1)C1=CN=c2s/c(=C\c3cn(Cc4ccccc4F)c4ccccc34)c(=O)n2C1c1ccc(F)cc1 (stereo not given)
Ki [21]: 1640 nM | Ki [22]: 2670 nM | Ki [23]: 1050 nM

O=C(O)C1C2CC(Sc3ccccc3[N+](=O)[O-])C(Cl)C2c2cc(Cl)cc3c2N1CC1CC=CC31 (stereo not given)
Ki [24]: 15000 nM | Ki [25]: 530 nM | Ki [26]: ≥ 50000 nM

CC(C)Oc1cc(C(=O)Nc2ccc(C(=O)Nc3ccc(C(=O)O)cc3OC(C)C)nc2OC(C)C)ccc1N
IC50 [27]: 394 nM | IC50 [28]: 10200 nM | Ki [29]: 179 nM

CC1=C[C@@H](/C=C(\C)c2ccc(C(=O)O)cc2)[C@]2(C(=O)O)C=C[C@@H](CCOC(=O)c3ccc(Oc4ccccc4)cc3)C[C@@H]2C1
Ki [30]: 700 nM | Ki [31]: 500 nM

Cc1cc2c(O)c(-c3ccc4c(C(=O)NCC(C)c5ccccc5)c(O)c(O)cc4c3O)c(C)cc2c(C(=O)NCC(C)c2ccccc2)c1C (stereo not given)
IC50 [32]: 320 nM | IC50 [33]: 200 nM | IC50 [34]: 620 nM | IC50 [35]: 310 nM

CC(C)Cc1cc(-c2ccc(-c3ccc(OCC(=O)O)cc3CC(C)C)cc2Cc2ccccc2)ccc1OCCC(=O)O
IC50 [36]: 1500 nM | IC50 [37]: 4900 nM

O=C(O)CSc1cc(NS(=O)(=O)c2cccc(Br)c2)c2ccccc2c1O
Ki [38]: 490 nM | Ki [39]: 5330 nM | Ki [40]: 23800 nM | Ki [41]: 33000 nM | Ki [42]: 180 nM | Ki [43]: 8190 nM

O=C(O)CSc1cc(NS(=O)(=O)c2cccs2)c2ccccc2c1O
Ki [43]: 37500 nM

O=C(COc1ccc2ccccc2c1)NCCN1C(=O)c2cccc3c(Sc4ccc(Br)cc4)ccc(c23)C1=O
Kd [44]: 1130 nM | IC50 [45]: 10100 nM | IC50 [46]: 43200 nM | Kd [47]: 150 nM | IC50 [48]: 510 nM | IC50 [49]: 9460 nM
